Test [1] relates to T1, reconstituted HqD (PnpE1_2-PnpE2_2 heterotetrameric complex).
T1 construct: gene pnpE1; N-terminal 6xHis on both subunits (pDEST17), E. coli BL21-AI; mixed, gel-filtered, ~120 kDa heterotetramer; with Hydroquinone dioxygenase small subunit
Briefly: spectrophotometric, 4-hydroxymuconic semialdehyde formation at […] nm. It counts as biochemical, Burkholderia sp. SJ98. Conditions: pH 7.0, 25°C; Fe(II) required (100 μM FeSO4 in the standard assay).

The target of test [2] is PnpE2, small subunit of hydroquinone dioxygenase (HqD) of Burkholderia sp. strain SJ98 (Burkholderia sp. strain SJ98). Briefly: SEC; purified PnpE1 and PnpE2 mixed in molar ratios from 3:1 to 1:3 in 50 mM phosphate buffer pH 7.0, incubated at 30°C for 1 h, then Sephacryl-200 gel filtration; molecular weight from the elution volume against standard proteins. In general terms: SEC sorts molecules by how far they enter the pores of the column.

The results in this text go back to publication PMC3485097, “Branching of the p-nitrophenol (PNP) degradation pathway in burkholderia sp. Strain SJ98: Evidences from genetic characterization of PNP gene cluster” (AMB Express, 2012).

The Km is the concentration of substrate that gives half-maximal velocity. For the compound `Oc1ccc(O)cc1` [HQ, hydroquinone], the Michaelis constant (Km) in test [1] worked out at 65.3 ± 10.5 µM.
Take “PnpE1, large subunit of hydroquinone dioxygenase (HqD) of Burkholderia sp. strain SJ98 (natural protein)”: in test [2], the stoichiometry N (molecules of each subunit (2:2)) came out at 2.
